Read-outs that look alike come from different tables or passages of the source.
Experiments:
Chk1 = molecular target: T1, Chk1 (Homo sapiens, UniProt O14757); assay: In vitro genotoxic chemotherapy-induced Chk1 autophosphorylation, checkpoint arrest and cytotoxicity potentiation; type: cell-based
T1 construct: endogenous in cells
T1 sequence (O14757 1-476): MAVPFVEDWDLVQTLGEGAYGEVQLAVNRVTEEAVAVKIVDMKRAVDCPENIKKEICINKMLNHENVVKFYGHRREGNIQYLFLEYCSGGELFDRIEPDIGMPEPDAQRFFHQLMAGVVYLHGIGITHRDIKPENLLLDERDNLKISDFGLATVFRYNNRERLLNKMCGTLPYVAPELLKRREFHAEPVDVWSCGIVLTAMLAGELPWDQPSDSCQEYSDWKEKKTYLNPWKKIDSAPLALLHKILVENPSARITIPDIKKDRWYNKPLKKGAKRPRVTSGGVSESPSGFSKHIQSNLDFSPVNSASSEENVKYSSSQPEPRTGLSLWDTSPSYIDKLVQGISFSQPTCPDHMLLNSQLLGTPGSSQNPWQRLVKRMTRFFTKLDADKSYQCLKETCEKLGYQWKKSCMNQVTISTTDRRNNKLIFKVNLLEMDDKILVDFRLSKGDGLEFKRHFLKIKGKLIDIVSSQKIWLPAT

KPC-1 pancreatic cancer = assay: In vivo efficacy, KPC-1 model; design: species or system mouse; details: in combination with standard-dose gemcitabine; data not shown
Description: (§1) A program of in vivo efficacy studies was performed to assess the activity of SRA737 in combination with genotoxic chemotherapy and targeted agents, and as monotherapy.
(§2) One of these models also carried a MYCN amplification. A fourth HGSOC PDX model with partial resistance to PARPi was also sensitive to high dose SRA737 monotherapy.

PDX model of TNBC = assay: In vivo efficacy, PDX model of TNBC; design: species or system mouse; details: with low-dose gemcitabine; data not shown
Description: as §1, §2

MOLM-13 model of AML = assay: In vivo efficacy, MOLM-13 model; design: species or system mouse; details: data not shown
Description: as §1, §2

[1] = Phase 1 clinical trial, SRA737 in combination with gemcitabine dose escalation; type: in vivo, human; details: for AUC(0-t) / Cmax / Tmax / half-life: human, plasma, oral, mean
Description: A Phase 1 clinical trial was conducted in ‘all corners,’ i.e. no genetic selection was performed, to establish safety, tolerability and pharmacokinetics for SRA737 administered in combination with gemcitabine (“Dose Escalation Phase”). Cohorts consisting initially of a single subject received escalating doses of SRA737, starting in Cohort 1 with 40 mg/day administered orally on days 2, 3, 9, 10, 16, and 17 of each 28-day cycle. Cohorts also received various doses of gemcitabine, starting in Cohort 1 with 300 mg/m^2/day administered IV over 30 minutes on days 1, 8, and 15 of each 28-day cycle.
FIG. 3 presents a summary of dosing amounts for the cohorts tested. In the Dose Escalation Phase, a total of 55 subjects received SRA737 in 13 dose escalation cohorts at doses of 40 to 600 mg SRA737 combined with LDG doses of 50 to 300 mg/m^2.
At this dose, the Cmin (52 ng/mL) exceeded that determined in preclinical models to be effective.
Additional cohorts are monitored escalating the dose of SRA737 until the maximum tolerated dose (MTD) is identified and to optimize combination dosing with gemcitabine. All enrolled subjects who receive at least 1 dose of SRA737 and provide at least 1 evaluable PK concentration or have evaluable data for each specific PDn assessment are evaluable for PK and PDn, respectively. Serious adverse events (SAEs) are collected starting on the date of informed consent. Radiological assessment are performed within 4 weeks from the first dose of SRA737 (or gemcitabine if the SRA737 dose for PK is omitted) and repeated every 6 weeks in Stage 1. In Stage 2, assessments are performed every 8 weeks and in long-term follow-up every 16 weeks. Assessments are performed more frequently, when clinically indicated. Cardiac assessments (echocardiogram [ECHO] and electrocardiogram [ECG]) are be conducted. Optional triplet tumor biopsies in some cases are collected within 28 days prior to receiving the first SRA737 dose. Within 7 days of the first dose of SRA737 (or gemcitabine if the SRA737 dose for PK is omitted), the following assessments are completed: complete physical examination, clinical disease assessment, SAE and concomitant medication, WHO performance status and local laboratory assessment of blood (for hematology, biochemistry, and pregnancy testing). At the single-dose PK run-in on Day −7 to Day −4 visit, concomitant medication, vital signs (including temperature, blood pressure, and pulse), height, weight, body surface area (BSA), and WHO performance status are collected. Blood samples are obtained predose for hematology, biochemistry, pregnancy testing, troponin I or T, as well as for tumor markers and tumor profiling. Adverse events (AEs) are collected starting at the administration of SRA737. Archival tissue is submitted for tumor profiling. PK samples are collected at up to 10 time points over a 48-hour time period on Day −7 to −4 (first dose of SRA737 for PK). The sponsor in some cases reduces the requirement for PK sampling, including modification or elimination of the Day −7 to Day −4 visit once sufficient data to evaluate the single-dose PK of SRA737 have been collected and analyzed. […]

[2] = mouse, in vivo, po

N#Cc1cnc(Nc2cc(NCC3CNCCO3)c(C(F)(F)F)cn2)cn1 (centres unmarked) [SRA737, 5-[[4-[[morpholin-2-yl]methylamino]-5-(trifluoromethyl)-2-pyridyl]amino]pyrazine-2-carbonitrile]
cytotoxicity of genotoxic chemotherapeutic agents and targeted agents (Chk1): dose-dependent potentiation | genotoxicity-induced checkpoint arrest (Chk1): dose-dependent inhibition | genotoxic chemotherapy-induced Chk1 autophosphorylation (Chk1; data not shown): potently inhibited | antitumor activity (KPC-1 pancreatic cancer): Significant, dose-dependent antitumor activity | synergy (PDX model of TNBC): Synergy | single agent efficacy (MOLM-13 model of AML): single agent efficacy | Cmin ([1]; 150 mg SRA737): 52 ng/mL | dose limiting toxicities (DLTs) ([1]; 40 to 600 mg SRA737 combined with gemcitabine 50 to 300 mg/m^2): No protocol-defined dose limiting toxicities | AUC(0-t) ([1]; 20 mg, Day −7, n = 8-10, read-out: AUC0-12): 145 ng·h/mL | Cmax ([1]; 40 mg, Day 10, n = 4): 117 ng/mL | Tmax ([1]; 40 mg, Day 10, n = 4): 1.8 h | AUC(0-t) ([1]; 40 mg, Day 10, n = 4, read-out: AUC0-12): 543 ng·h/mL | Cmax ([1]; 40 mg, Day −7, n = 6): 106 ng/mL | Tmax ([1]; 40 mg, Day −7, n = 6): 2 h | AUC(0-t) ([1]; 40 mg, Day −7, n = 6, read-out: AUC0-12): 486 ng·h/mL | AUC(0-t) ([1]; 40 mg, Day −7, n = 6, read-out: AUC0-24): 637 ng·h/mL | Cmax ([1]; 80 mg, Day 10, n = 3): 113 ng/mL | Tmax ([1]; 80 mg, Day 10, n = 3): 2 h | AUC(0-t) ([1]; 80 mg, Day 10, n = 3, read-out: AUC0-12): 570 ng·h/mL | Cmax ([1]; 80 mg, Day −7, n = 3): 146 ng/mL | Tmax ([1]; 80 mg, Day −7, n = 3): 2 h | AUC(0-t) ([1]; 80 mg, Day −7, n = 3, read-out: AUC0-12): 641 ng·h/mL | AUC(0-t) ([1]; 80 mg, Day −7, n = 3, read-out: AUC0-24): 825 ng·h/mL | Cmax ([1]; 150 mg, Day 10, n = 3): 331 ng/mL | Tmax ([1]; 150 mg, Day 10, n = 3): 1.5 h | AUC(0-t) ([1]; 150 mg, Day 10, n = 3, read-out: AUC0-12): 1680 ng·h/mL | Cmax ([1]; 150 mg, Day −7, n = 4): 548 ng/mL | Tmax ([1]; 150 mg, Day −7, n = 4): 1.8 h | AUC(0-t) ([1]; 150 mg, Day −7, n = 4, read-out: AUC0-12): 2630 ng·h/mL | AUC(0-t) ([1]; 150 mg, Day −7, n = 4, read-out: AUC0-24): 3550 ng·h/mL | Cmax ([1]; 300 mg, Day 10, n = 7): 1080 ng/mL | Tmax ([1]; 300 mg, Day 10, n = 7): 1.7 h | AUC(0-t) ([1]; 300 mg, Day 10, n = 7, read-out: AUC0-12): 5140 ng·h/mL | Cmax ([1]; 300 mg, Day −7, n = 7): 995 ng/mL | Tmax ([1]; 300 mg, Day −7, n = 7): 2.4 h | AUC(0-t) ([1]; 300 mg, Day −7, n = 7, read-out: AUC0-12): 4530 ng·h/mL | AUC(0-t) ([1]; 300 mg, Day −7, n = 7, read-out: AUC0-24): 5910 ng·h/mL | Cmax ([1]; 500 mg, Day 10, n = 19-22): 1720 ng/mL | Tmax ([1]; 500 mg, Day 10, n = 19-22): 2.4 h | AUC(0-t) ([1]; 500 mg, Day 10, n = 19-22, read-out: AUC0-12): 10200 ng·h/mL | Cmax ([1]; 500 mg, Day −7, n = 29): 1430 ng/mL | Tmax ([1]; 500 mg, Day −7, n = 29): 2.4 h | AUC(0-t) ([1]; 500 mg, Day −7, n = 29, read-out: AUC0-12): 8320 ng·h/mL | AUC(0-t) ([1]; 500 mg, Day −7, n = 29, read-out: AUC0-24): 11400 ng·h/mL | Cmax ([1]; 600 mg, Day 10, n = 4): 2110 ng/mL | Tmax ([1]; 600 mg, Day 10, n = 4): 2.5 h | AUC(0-t) ([1]; 600 mg, Day 10, n = 4, read-out: AUC0-12): 11900 ng·h/mL | Cmax ([1]; 600 mg, Day −7, n = 4): 2210 ng/mL | Tmax ([1]; 600 mg, Day −7, n = 4): 1.8 h | AUC(0-t) ([1]; 600 mg, Day −7, n = 4, read-out: AUC0-12): 11800 ng·h/mL | AUC(0-t) ([1]; 600 mg, Day −7, n = 4, read-out: AUC0-24): 15100 ng·h/mL | half-life ([1]; 20 mg, Day −7, n = 8-10): 4.09 h | half-life ([1]; 40 mg, Day −7, n = 6): 11.6 h | half-life ([1]; 80 mg, Day −7, n = 3): 11.3 h | half-life ([1]; 150 mg, Day −7, n = 4): 12.7 h | half-life ([1]; 300 mg, Day −7, n = 7): 11.8 h | half-life ([1]; 500 mg, Day −7, n = 29): 11.8 h | half-life ([1]; 600 mg, Day −7, n = 4): 11.1 h | MTD [2]: 225 mg/m^2/day

From US20200397796A1, “METHODS OF TREATMENT OF CANCER COMPRISING CHK1 INHIBITORS” (SIERRA ONCOLOGY, INC., priority 2018, published 2020)
